Read-outs that look alike come from different tables or passages of the source. Starred links: 1 amine or outer side, 2 acyl side, 3 side chain; linkers in the order of their positions; H or OH if unused. Non-standard residues stand in square brackets, D forms with d. Residues, ends and D or L forms follow the SMILES beside them. *: point of attachment. DOTA = O=C(O)CN1CCN(CC(=O)O)CCN(CC(=O)*)CCN(CC(=O)O)CC1; PEG12 = NCCOCCOCCOCCOCCOCCOCCOCCOCCOCCOCCOCCOCCC(=O)O; d(γGlu) = O=C(O)[C@@H](CCC(=O)[*:2])N[*:1]; PEG8 = NCCOCCOCCOCCOCCOCCOCCOCCOCCC(=O)O; 1Nal = N[C@@H](Cc1cccc2ccccc12)C(=O)O; PEG6 = NCCOCCOCCOCCOCCOCCOCCC(=O)O; PEG5 = NCCOCCOCCOCCOCCOCCC(=O)O; NMeNle = CCCC[C@H](NC)C(=O)O
Legend:
[1] = molecular target: T1, CCK-2R (Rattus norvegicus, UniProt P30553); test: Determination of IC50: CCK-2R affinity on AR4-2J cells, competition with [^177Lu]Lu-DOTA-PP-F11N; assay type: binding
T1 construct: The CCK-2R expressing rat pancreatic tumor cells AR4-2J; host or cells: AR4-2J rat pancreatic tumor cells
T1 sequence (P30553 1-452): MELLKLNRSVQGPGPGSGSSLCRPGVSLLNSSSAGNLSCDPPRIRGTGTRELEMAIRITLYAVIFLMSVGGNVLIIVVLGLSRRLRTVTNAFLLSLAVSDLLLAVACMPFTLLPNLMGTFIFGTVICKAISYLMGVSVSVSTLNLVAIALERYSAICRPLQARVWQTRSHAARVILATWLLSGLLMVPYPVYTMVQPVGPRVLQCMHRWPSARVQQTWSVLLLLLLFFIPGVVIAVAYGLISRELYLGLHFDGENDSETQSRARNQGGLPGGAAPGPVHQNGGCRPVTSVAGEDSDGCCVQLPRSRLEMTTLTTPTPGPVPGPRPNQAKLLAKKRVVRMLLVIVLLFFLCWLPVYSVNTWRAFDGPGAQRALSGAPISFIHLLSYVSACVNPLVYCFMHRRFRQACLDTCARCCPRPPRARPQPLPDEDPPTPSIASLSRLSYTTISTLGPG
Experimental: AR4-2J cells were harvested 24 ± 2 h before the experiment and seeded in 24-well plates (2.0 × 10^5 cells in 1 mL/well). After removal of the nutrient medium (RPMI 1640, 5 mM L-Gln, 5 mL non-essential amino acids (100×), 10% FCS), the cells were washed once with 500 µL PBS. Thereafter, 200 µL nutrient medium (5% BSA, v/v) were added. Next, 25 µL per well of solutions containing either nutrient medium (5% BSA, v/v) as control or the respective compound in increasing concentration (10^-10 - 10^-4 M), were added with subsequent addition of 25 µL [^177Lu]Lu-DOTA-PP-F11N (0.3 pmol/well).
All experiments were performed in triplicate for each concentration. After 3 h incubation at 37 °C, the experiment was terminated by removal of the medium and consecutive rinsing with 300 µL PBS. The media of both steps were combined in one fraction and represent the amount of free radiolabeled reference. Afterwards, the cells were lysed with 300 µL of 1 M NaOH for at least 15 min and united with the 300 µL NaOH of the following washing step. Quantification of bound and free radiolabeled reference was accomplished in a γ-counter. IC50 determination for each conjugate was repeated twice.

[2] = n-Octanol-PBS distribution coefficient (logD7.4); assay type: physicochemical; conditions: pH = 7.4, ^177Lu-labeled
Experimental: Approximately 1 MBq of the labeled tracer was dissolved in 1 mL of a 1/1 mixture (v/v) of phosphate buffered saline (PBS, pH = 7.4) and n-octanol in an Eppendorf tube (1.5 mL). After vigorous mixing of the suspension for 3 min at rt, the vial was centrifuged at 9,000 rpm for 5 min (Biofuge 15, Heraeus Sepatech, Osterode, Germany) and 200 µL aliquots of both layers were measured in a γ-counter. The experiment was repeated at least five times.

[3] = AR4-2J cells; ^natLu-labeled; read-out: IC50 [nM] (n = 3), ^natLu-labeled

SMILES | IC50 [1, 3] | logD7.4 (n ≥ 5), ^177Lu-labeled [2] | IC50 ([1]; read-out: IC50 [nM] (n = 3), ^natLu-labeled; AR4-2J cells; ^natLu-labeled)
CCCC[C@@H](C(=O)N[C@@H](CC(=O)O)C(=O)N[C@@H](Cc1cccc2ccccc12)C(N)=O)N(C)C(=O)[C@H](Cc1c[nH]c2ccccc12)NC(=O)CCOCCOCCOCCOCCOCCNC(=O)CC[C@@H](NC(=O)CN1CCN(CC(=O)O)CCN(CC(=O)O)CCN(CC(=O)O)CC1)C(=O)O [DOTA-CCK-78, DOTA-γ-glu-(PEG)4-Trp-(N-Me)Nle-Asp-1-Nal-NH2] ({DOTA-d(γGlu)-PEG5}-W[NMeNle]D[1Nal]-NH2) | 6.7 ± 0.8 nM | −2.61 ± 0.06 | –
CCCC[C@@H](C(=O)N[C@@H](CC(=O)O)C(=O)N[C@@H](Cc1cccc2ccccc12)C(N)=O)N(C)C(=O)[C@H](Cc1c[nH]c2ccccc12)NC(=O)CCOCCOCCOCCOCCOCCOCCNC(=O)CC[C@@H](NC(=O)CN1CCN(CC(=O)O)CCN(CC(=O)O)CCN(CC(=O)O)CC1)C(=O)O [DOTA-CCK-79, DOTA-γ-glu-(PEG)5-Trp-(N-Me)Nle-Asp-1-Nal-NH2] ({DOTA-d(γGlu)-PEG6}-W[NMeNle]D[1Nal]-NH2) | 7 ± 0.6 nM | −2.59 ± 0.05 | –
CCCC[C@@H](C(=O)N[C@@H](CC(=O)O)C(=O)N[C@@H](Cc1cccc2ccccc12)C(N)=O)N(C)C(=O)[C@H](Cc1c[nH]c2ccccc12)NC(=O)CCOCCOCCOCCOCCOCCOCCOCCOCCNC(=O)CC[C@@H](NC(=O)CN1CCN(CC(=O)O)CCN(CC(=O)O)CCN(CC(=O)O)CC1)C(=O)O [DOTA-CCK-80, DOTA-γ-glu-(PEG)7-Trp-(N-Me)Nle-Asp-1-Nal-NH2] ({DOTA-d(γGlu)-PEG8}-W[NMeNle]D[1Nal]-NH2) | 7.9 ± 0.2 nM | −2.51 ± 0.09 | –
CCCC[C@@H](C(=O)N[C@@H](CC(=O)O)C(=O)N[C@@H](Cc1cccc2ccccc12)C(N)=O)N(C)C(=O)[C@H](Cc1c[nH]c2ccccc12)NC(=O)CCOCCOCCOCCOCCOCCOCCOCCOCCOCCOCCOCCOCCNC(=O)CC[C@@H](NC(=O)CN1CCN(CC(=O)O)CCN(CC(=O)O)CCN(CC(=O)O)CC1)C(=O)O [DOTA-CCK-81, DOTA-γ-glu-(PEG)11-Trp-(N-Me)Nle-Asp-1-Nal-NH2] ({DOTA-d(γGlu)-PEG12}-W[NMeNle]D[1Nal]-NH2) | 6.3 ± 0.7 nM | −2.47 ± 0.10 | –
CCCC[C@H](NC(=O)[C@H](Cc1c[nH]c2ccccc12)NC(=O)CNC(=O)[C@H](Cc1ccc(O)cc1)NC(=O)[C@H](C)NC(=O)CC[C@@H](NC(=O)CC[C@@H](NC(=O)CC[C@@H](NC(=O)CC[C@@H](NC(=O)CC[C@@H](NC(=O)CC[C@@H](NC(=O)[C@@H](CNC(=O)c1ccc([Si](F)(C(C)(C)C)C(C)(C)C)cc1)NC(=O)CN1CCN(CC(=O)O)CCN(CC(=O)O)CCN(CC(=O)O)CC1)C(=O)O)C(=O)O)C(=O)O)C(=O)O)C(=O)O)C(=O)O)C(=O)N[C@@H](CC(=O)O)C(=O)N[C@@H](Cc1ccccc1)C(N)=O [DOTA-MG-SiFA-19] | 7.54 ± 0.26 nM | −2.70 ± 0.09 | –
CCCC[C@H](NC(=O)[C@H](Cc1c[nH]c2ccccc12)NC(=O)CNC(=O)[C@H](Cc1ccc(O)cc1)NC(=O)[C@H](C)NC(=O)CC[C@@H](NC(=O)CC[C@@H](NC(=O)CC[C@@H](NC(=O)CC[C@@H](NC(=O)CC[C@@H](NC(=O)CC[C@@H](NC(=O)CC[C@@H](NC(=O)CC[C@@H](CO)NC(=O)[C@@H](CNC(=O)c1ccc([Si](F)(C(C)(C)C)C(C)(C)C)cc1)NC(=O)CN1CCN(CC(=O)O)CCN(CC(=O)O)CCN(CC(=O)O)CC1)C(=O)O)C(=O)O)C(=O)O)C(=O)O)C(=O)O)C(=O)O)C(=O)O)C(=O)N[C@@H](CC(=O)O)C(=O)N[C@@H](Cc1ccccc1)C(N)=O [DOTA-MG-SiFA-29, DOTA-dap(SiFA)-Glutamol-(γ-glu)7-F11N] | – | −1.88 ± 0.07 | 6.55 ± 1.23 nM

Source: patent publication EP4631959A2, “NOVEL MINIGASTRIN-DERIVED CHOLECYSTOKININ 2 RECEPTOR BINDING MOLECULES FOR IMAGING AND TARGETED RADIOTHERAPY” (priority 2022, dated 2024)
